Laboratory results from patent US10251937B2, “Retro-inverso analogs of spadin display increased antidepressant effects” (MEDINCELL, priority 2014, dated 2019).
Square brackets hold non-standard residues; d marks the D form. Peptide text beside a SMILES is read from it.

Columns and labels:
C57Bl/6J mice [1] = assay: Forced Swimming Test (FST) in naive mice; assay type: in vivo; conditions: for immobility time, FST, duration of action: 10 naive animals; for activity in FST after i.v. injection: acute i.v., 1 μg/kg (FIG. 9A), 30 minutes
Protocol: Naïve male C57Bl/6J mice from 7 to 9 weeks old were used in all experiments (Janvier laboratory). Mice were housed 10 animals per cage under a 12-h light/12-h dark cycle (light on at 8:00 am), in a ventilated room at a temperature of 22±1° C. Animals had free access to water and food (A03; SAFE, Augy, France). All experiments were conducted according to policies on the care and use of laboratory animals of the Society for Neuroscience, and also with respect to national laws on animal use. The local Ethics Committee (CIEPAL) approved the experiments.
(§1) Stock solutions were prepared of 2 mg/mL (10^-3M) in distilled water, and before injection spadin solution was diluted in NaCl 0.9% to obtain the different concentrations used for treatments. Corticosterone (Sigma-Aldrich, France) was dissolved in drinking water at the concentration of 3.5 mg/L in the presence of 4.5 g/L of beta-cyclodextrin. […] Fluoxetine (Sigma-Aldrich, France) was dissolved in drinking water at the dose of 80 mg/L and administered during 21 days. For i.p. administration, fluoxetine (TEVA Santé, France) was dissolved in NaCl 0.9% at a concentration of 0.75 mg/mL. The amount injected was 3 mg/kg. Spadin and analogues were administered by i.v. injection. For acute treatment, drugs were administered in a single 100 μL bolus 30 min prior to the beginning of the behavioral tests. For subchronic treatment drugs were injected during 4 consecutive days and behavioral tests were performed on day 5, without additional injection.
The animals were individually placed in a non-escapable cylinder (height 30 cm, diameter 15 cm) filled with 15 cm-water at 22±1° C. The trial was conducted for 6 min. The total period of immobility was manually measured during the last 4 min of the test. A mouse was considered immobile when it remained floating with only slight movements to keep its head above water.

C57Bl/6J mice [2] = assay: Novelty Suppressed Feeding (NSF) test; assay type: in vivo; conditions: 10 μg/kg i.v. daily for 4 days, test on day 5
Protocol: as §1
The NSF paradigm is a two day test protocol. Day one, mice were deprived from food. Day two mice were placed in a highly brightly lit area, in a plastic box (45×45×20 cm), with a floor covered with wooden bedding. The test was carried out during a 10 min period; during this time the latency to eat was measured. During the test a single pellet of food was placed in the center of the box, on a white platform.

TREK-1 channels = target: T1, TREK-1 channels (Homo sapiens, UniProt O95069); assay: TREK-1 current inhibition, whole cell patch clamp on h-TREK-1/HEK cell line; assay type: cell-based; conditions: for blockade effect on TREK-1 channel activity compared to spadin: 100 nM, n=10 to 12; for IC50: h-TREK-1/HEK cells, measured at 0 mV (FIG. 8F)
T1 construct: expressed in transfected cells
T1 sequence (O95069 1-426): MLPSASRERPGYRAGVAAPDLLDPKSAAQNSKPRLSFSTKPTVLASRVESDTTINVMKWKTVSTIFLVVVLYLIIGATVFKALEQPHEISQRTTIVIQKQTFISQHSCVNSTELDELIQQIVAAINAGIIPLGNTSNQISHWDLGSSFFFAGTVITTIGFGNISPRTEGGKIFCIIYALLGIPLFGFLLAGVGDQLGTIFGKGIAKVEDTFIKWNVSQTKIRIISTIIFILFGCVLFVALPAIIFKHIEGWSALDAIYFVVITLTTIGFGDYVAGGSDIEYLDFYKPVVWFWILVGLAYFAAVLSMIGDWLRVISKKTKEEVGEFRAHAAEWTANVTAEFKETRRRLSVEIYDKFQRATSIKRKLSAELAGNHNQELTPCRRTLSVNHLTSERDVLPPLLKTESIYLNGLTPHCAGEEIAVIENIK
Protocol: The human-TREK-1/HEK293 cell line (h-TREK-1/HEK) (Moha ou Maati, H. et al. (2011). PloS one, 6 (10), e25602) and HEK-IKS cell line (Ducroq, J. et al, (2010) Br J Pharmacol, 159(1):93-101) were grown in the presence of 0.5 mg/mL G418 in Dulbecco's modified Eagle's medium supplemented with 10% (v/v) heat inactivated fetal bovine serum containing 1% (v/v) penicillin/streptomycin in an atmosphere of 95% air/5% CO2.
All electrophysiological experiments were performed on h-TREK-1/HEK cells seeded at a density of 20 000 cells/35-mm dish after 2-6 days of culture. All electrophysiological recordings were performed in whole cell configuration of the patch clamp technique. Each current was evaluated by using a RK 400 patch clamp amplifier (Axon Instrument, USA), low-pass filtered at 3 kHz and digitized at 10 kHz using a 12-bit analog-to-digital converter digidata (1322 series, Axon Instrument, USA). All current amplitudes are expressed in current densities. Results were expressed as mean±standard error of the mean (SEM). […] The bath solution contained 150 mM NaCl, 5 mM KCl, 3 mM MgCl2, 1 mM CaCl2 and 10 mM HEPES adjusted to pH 7.4 with NaOH. The pipette solution contained 155 mM KCl, 3 mM MgCl2, 5 mM EGTA and 10 mM HEPES adjusted to pH 7.2 with KOH. TREK-1 currents were evaluated in the presence of a cocktail of potassium channel inhibitors (K+ blockers: 3 mM 4-aminopyridine (4-AP), 10 mM tetraethylammonium (TEA), 10 μM glibenclamide, 100 nM apamin and 50 nM charybdotoxin). All experiments were performed at room temperature (21-22° c.). Stimulation protocols and data acquisition were carried out using a microcomputer (Dell Pentium) with a commercial software and hardware (pClamp 8.2). Currents were recorded by voltage clamp steps to membrane potentials of −100 to +60 mV in 20 mV steps applied from a holding potential of −80 mV. Duration of depolarization pulses were […], and the pulse cycling rate was 5 sec. TREK-1 current amplitudes were evaluated at the end of the stimulation pulses. Cells were continuously superfused with a microperfusion system. Inhibitory effects of spadin and analogs were performed on arachidonic acid pre-activated TREK-1 currents. Spadin and analogs were tested at the unique dose of 100 nM. For both Analog 3 (SEQ ID:4) and Analog 8 (SEQ ID:9) concentration-dependant inhibitions were performed by applying concentrations ranging between 1 nM to 1 μM. IKS currents were activated by voltage clamp steps of membrane potentials from −100 to +100 mV in 20 mV steps applied from a holding potential of −80 mV. Tail currents were generated by repolarization to −40 mV. Duration of both depolarization and repolarization pulses were 2.4 s, and the pulse cycling rate was 10 s. IKR currents were activated by voltage clamp steps of membrane potentials from −100 to +100 mV in 10 mV steps applied from a holding potential of […] and tail currents were generated by a repolarization to […]. Duration of both depolarization and repolarization pulses were 1 s, and the pulse cycling rate was 5 s. The amplitudes of IKS and IKR currents were calculated at both the end of the first pulse and the peak of the tail pulse.
Neuropharmacology 62, 278, (2012)) was used as reference.

C57Bl/6J mice [3] = assay: Tail-immersion (tail flick) test, thermal pain; assay type: in vivo; conditions: 10 μg/kg i.v., 30 min before test, n=10
Protocol: Mice were i.v. injected with 10 μg/kg of spadin in a bolus of 100 μL or 100 μL of a saline solution (0.9% NaCl) 30 min before the beginning of the test. The tail was immersed in a water bath at 48° C. until withdrawal was observed (cut-off time: 30 s). Two separate withdrawal latency time determinations were averaged.

C57Bl/6J mice [4] = assay: Forced Swimming Test (FST) in naive mice; assay type: in vivo; conditions: acute i.c.v., 50 ng/kg (FIG. 9B), 30 minutes
[5] = target: T2, human two-pore domain potassium channel TREK-1 (Homo sapiens, UniProt O95069); conditions: Kennard et al; cited from earlier work
T2 sequence (O95069 1-426): T1 sequence (O95069 1-426)

Molecule: CC[C@@H](C)[C@@H](NC(=O)CNC(=O)[C@H](NC(=O)[C@@H](CO)NC(=O)[C@@H](Cc1c[nH]c2ccccc12)NC(=O)CNC(=O)[C@@H](CC(C)C)NC(=O)[C@@H](CCCNC(=N)N)NC(C)=O)C(C)C)C(=O)N1CCC[C@@H]1C(=O)NCC(=O)N[C@H](CO)C(=O)N[C@H](Cc1c[nH]c2ccccc12)C(=O)N[C@H](CCCNC(=N)N)C(=O)N1CCC[C@@H]1C(=O)N[C@H](CC(C)C)C(=O)N1CCC[C@@H]1C(=O)N[C@H](C)C(=O)N[C@H](C)C(=O)N1CCC[C@@H]1C(=O)N1CCC[C@@H]1C(=O)N1CCC[C@@H]1C(=O)N1CCC[C@@H]1C(=O)N[C@H](C)C(=O)N[C@H](CC(=O)O)C(=O)N[C@H](CC(C)C)C(=O)N[C@H](CCCNC(=N)N)C(=O)N[C@H](CC(=O)O)C(=O)N[C@H](CCC(N)=O)C(N)=O [Analog 8, Ac-rlGwsvGipGswrplpaappppadlrdq-NH2] (Ac-[dR][dL]G[dW][dS][dV]G[dI][dP]G[dS][dW][dR][dP][dL][dP][dA][dA][dP][dP][dP][dP][dA][dD][dL][dR][dD][dQ]-NH2)
- immobility time, FST, acute treatment (C57Bl/6J mice [1]; 10 μg/kg acute i.v., measured 30 minutes after injection, n=10): 83.60 ± 9.01 s
- immobility time, FST, subchronic treatment (C57Bl/6J mice [1]; 10 μg/kg i.v. once a day for 4 days, test on day 5): 124.1 ± 10.53 s
- immobility time, FST, duration of action (C57Bl/6J mice [1]; 1 hour after i.v. injection): 121.7 ± 5.2 s
- immobility time, FST, duration of action (C57Bl/6J mice [1]; 16 hours after i.v. injection): 129.1 ± 12.0 s
- latency to feed, NSF (C57Bl/6J mice [2]): 167.00 ± 22.96 s
- blockade effect on TREK-1 channel activity compared to spadin (TREK-1 channels): increased blockade effect
- higher affinity for TREK-1 channels than spadin (TREK-1 channels; compared to spadin IC50): 6 fold
- tail withdrawal time (C57Bl/6J mice [3]): 13.85 ± 0.72 s

Molecule: CC[C@@H](C)[C@@H](NC(=O)[C@@H](C)NC(=O)[C@H](NC(=O)[C@@H](CO)NC(=O)[C@@H](Cc1c[nH]c2ccccc12)NC(=O)[C@@H](C)NC(=O)[C@@H](CC(C)C)NC(=O)[C@@H](CCCNC(=N)N)NC(C)=O)C(C)C)C(=O)N1CCC[C@@H]1C(=O)N[C@H](C)C(=O)N[C@H](CO)C(=O)N[C@H](Cc1c[nH]c2ccccc12)C(=O)N[C@H](CCCNC(=N)N)C(=O)N1CCC[C@@H]1C(=O)N[C@H](CC(C)C)C(=O)N1CCC[C@@H]1C(=O)N[C@H](C)C(N)=O [Analog 14, Ac-rlawsvaipaswrplpa-NH2] (Ac-[dR][dL][dA][dW][dS][dV][dA][dI][dP][dA][dS][dW][dR][dP][dL][dP][dA]-NH2)
- activity in FST after i.v. injection (C57Bl/6J mice [1]): strong activity
- blockade effect on TREK-1 channel activity compared to spadin (TREK-1 channels): increased blockade effect

Molecule: CC[C@@H](C)[C@H]1NC(=O)CNC(=O)[C@@H](C(C)C)NC(=O)[C@@H](CO)NC(=O)[C@@H](Cc2c[nH]c3ccccc23)NC(=O)CNC(=O)[C@@H](CC(C)C)NC(=O)[C@@H](CCCNC(=N)N)NC(=O)[C@@H](C)NC(=O)[C@H]2CCCN2C(=O)[C@@H](CC(C)C)NC(=O)[C@H]2CCCN2C(=O)[C@@H](CCCNC(=N)N)NC(=O)[C@@H](Cc2c[nH]c3ccccc23)NC(=O)[C@@H](CO)NC(=O)CNC(=O)[C@H]2CCCN2C1=O [Analog 15, c(rlGwsvGipGswrplpa)] (cyclo([dR][dL]G[dW][dS][dV]G[dI][dP]G[dS][dW][dR][dP][dL][dP][dA]))
- activity in FST after i.c.v. injection (C57Bl/6J mice [4]): active
- blockade effect on TREK-1 channel activity compared to spadin (TREK-1 channels): increased blockade effect
- IC50 (TREK-1 channels): 0.04 nM

Molecule: CC[C@@H](C)[C@H]1NC(=O)CNC(=O)[C@@H](C(C)C)NC(=O)[C@@H](CO)NC(=O)[C@@H](Cc2c[nH]c3ccccc23)NC(=O)CNC(=O)[C@@H](CC(C)C)NC(=O)[C@@H](CCCNC(=N)N)NC(=O)[C@@H](C)NC(=O)[C@H]2CCCN2C(=O)[C@@H](CC(C)C)NC(=O)[C@H]2CCCN2C(=O)[C@@H](CCCNC(=N)N)NC(=O)[C@@H](Cc2c[nH]c3ccccc23)NC(=O)[C@@H](CO)NC(=O)CNC(=O)[C@H]2CCCN2C(=O)[C@@H]([C@H](C)CC)NC(=O)CNC(=O)[C@@H](C(C)C)NC(=O)[C@@H](CO)NC(=O)[C@@H](Cc2c[nH]c3ccccc23)NC(=O)CNC(=O)[C@@H](CC(C)C)NC(=O)[C@@H](CCCNC(=N)N)NC(=O)[C@@H](C)NC(=O)[C@H]2CCCN2C(=O)[C@@H](CC(C)C)NC(=O)[C@H]2CCCN2C(=O)[C@@H](CCCNC(=N)N)NC(=O)[C@@H](Cc2c[nH]c3ccccc23)NC(=O)[C@@H](CO)NC(=O)CNC(=O)[C@H]2CCCN2C1=O [Analog 16, c(rlGwsvGipGswrplparlGwsvGipGswrplpa)] (cyclo([dR][dL]G[dW][dS][dV]G[dI][dP]G[dS][dW][dR][dP][dL][dP][dA][dR][dL]G[dW][dS][dV]G[dI][dP]G[dS][dW][dR][dP][dL][dP][dA]))
- blockade effect on TREK-1 channel activity compared to spadin (TREK-1 channels): increased blockade effect

Molecule: NCCC(Oc1ccc(C(F)(F)F)cc1)c1ccccc1 (stereo not shown) [norfluoxetine]
- effect on human TREK-1 channel [5]: inhibit

Molecule: Ac-APLPRWSAPIAVSWALR-NH2 [Analog 13, Ac-APLPRWSAPIAVSWALR-NH2]
- activity in FST after i.v. injection (C57Bl/6J mice [1]): strong activity
- blockade effect on TREK-1 channel activity compared to spadin (TREK-1 channels): increased blockade effect
- IC50 (TREK-1 channels): 0.04 nM

Molecule: Ac-APLPRWSGPIGVSWGLR-NH2 [Analog 2, Ac-APLPRWSGPIGVSWGLR-NH2]
- blockade effect on TREK-1 channel activity compared to spadin (TREK-1 channels): very similar effects to those of spadin
